{"source": "patent US10227560B2", "about": "“Biomimetic support for three-dimensional cell culturing, method for manufacturing same, and use thereof” (PUSAN NATIONAL UNIVERSITY INDUSTRY-UNIVERSITY COOPERATION …, priority 2014, dated 2019)", "key": {"[1]": {"tested_on": "human ovarian cancer cells A2780", "description": "(§1) The cytotoxicity assay was performed by the conventional method [H. Lee et al., Regul. Pept. (2008), 147, 72-81]. The cells of Reference Example 1 were dispensed in a 96-well plate at a concentration of 1×10^4 cells/well for R182 and A2780 cells together with 0.1 mL of 10% FBS containing cell medium, and a concentration of 1×10^5 cells/well for […] the cells were cultured for 24 hours and then cultured for 12-16 hours in the absence of FBS.\n(§2) The cultured cells were treated with various concentrations of calcium chloride (CaCl2, Sigma-Aldrich) at concentrations of 10, 50, 100, 200 and 300 mM and cultured for 18 to 24 hours to perform WST-1 assay (EZ-Cytox Cell Viability Assay kit, Daeillab Service, Seoul, Korea) for cell cytotoxicity assay.\n(§3) WST-1 reagent of 10 μL was added to each well and incubated for 2 hours in a humidified incubator at 37° C. and 5% CO2 and the absorbance was measured at 450 nm using a microplate reader (Tecan, M, Switzerland) to calculate the percent growth rate."}, "[2]": {"tested_on": "human ovarian cancer cell R182", "description": "as §1, §2, §3"}, "[3]": {"tested_on": "mouse T cell lymphoma cells (EL4)", "conditions": "18 to 24 hours", "description": "as §1, §2, §3"}, "CREC cells": {"tested_on": "CREC cells", "conditions": "18 to 24 hours", "protocol": "The cells of Reference Example 1 were dispensed in a 96-well plate at a concentration of 1×10^4 cells/well for R182 and A2780 cells together with 0.1 mL of 10% FBS containing cell medium, and a concentration of 1×10^5 cells/well for R182 and A2780 cells, and the cells were cultured for 24 hours and then cultured for 12-16 hours in the absence of FBS."}, "[4]": {"tested_on": "human ovarian cancer cell A2780", "assay": "cells", "conditions": "for viability at 0.5 µM: A2780, 24 h", "protocol": "In the case of A2780 cells, 0.125 wt % agarose-7.5 wt % marine collagen-1 wt % alginate composite hydrogel support was prepared in the same manner as in Example 9, the cells were added to 96-well plate to induce the gelation at 4° C. for 5-10 minutes, and then cultured in the medium. In addition, the conventional two-dimensional cell culture was also performed as a control for three-dimensional cell culture.\n(§5) In order to perform a sensitivity assay for an anticancer agent, EL4 and human ovarian cancer cell A2780 were cultured in an agarose-marine collagen-alginate composite hydrogel support in a two-dimensional and three-dimensional environment and an efficacy test for an anticancer agent was performed. EL4 cells cultured in two-dimensional culture conditions and EL4 cells cultured three-dimensionally in an agarose-marine collagen-alginate composite hydrogel support were treated with 5 μM doxorubicin (5927, cell signaling) and 100 μM resveratrol and the human ovarian cancer cell A2780 was treated with paclitaxel at a concentration of 0.5 μM for 24 hours, and then with WST-1 reagent, and absorbance was measured at 450 nm by a microplate reader to calculate percent growth rate.\nIn addition, 10 and 20 μM paclitaxel, and 30 and 50 μM curcumin were added to A2780 cells cultured in two-dimensional condition and A2780 cells cultured three-dimensionally for 7 days in agarose-marine collagen-alginate composite hydrogel supports, and the control group was treated with DMSO at the same concentration as the experimental group. The WST-1 reagent was then treated and the absorbance at 450 nm was measured by a microplate reader to calculate the percentage growth rate."}, "EL4 cells": {"tested_on": "EL4 cells", "assay": "cells", "conditions": "Mus musculus", "protocol": "In the case of EL4 cells, 0.125 wt % agarose-10 wt % marine collagen-1 wt % alginate composite hydrogel support was prepared in the same manner as in Example 9, and cells were added, and the mixture liquid was added to a 1 mL syringe with 80 μL to induce the gelation at 4° C. for 5-10 minutes, and then cultured in a 48-well plate.\nas §5"}, "[5]": {"tested_on": "human non-small cell lung cancer (NCI-H1703) cells", "assay": "Anticancer drug susceptibility, WST-1 cell viability, 2D culture vs 3D culture on Fc 4%-Sc 50% fish collagen/PCL nanofiber support", "format": "cell-based", "conditions": "3 μM doxorubicin, read-out: cell viability as compared with the control group", "description": "(§4) First, an Fc 4%-Sc 50% fish collagen/PCL nanofiber support prepared in the same manner as in Example 1, was placed in a 96-well plate and NCI-H1703 and DU-145 cells were inoculated at a concentration of 5×10^4 cells/well. […] The results are expressed as mean±standard deviation (SD) for each analysis. Statistical analysis was performed using a two-tailed t-test and statistical significance was evaluated based on P<0.05."}, "[6]": {"tested_on": "prostate cancer cell line DU-145", "assay": "Anticancer drug susceptibility, WST-1 cell viability, 2D culture vs 3D culture on Fc 4%-Sc 50% fish collagen/PCL nanofiber support", "format": "cell-based", "conditions": "Homo sapiens, 3 μM paclitaxel, read-out: cell viability as compared with the control group", "description": "as §4"}, "[7]": {"conditions": "EL4, read-out: cell viability compared to the control group"}, "[8]": {"conditions": "EL4, read-out: viability as compared with the control group"}}, "note": "Like-named read-outs stand apart in the source and are kept apart here.", "data": [{"compound": "[Ca+2].[Cl-].[Cl-]", "note": "[CaCl2, calcium chloride]", "values": [{"measurement": "dose-dependent cytotoxic effect (WST-1, percent growth rate)", "setting": "[1]; 50 mM", "value": 74.9, "unit": "%"}, {"measurement": "dose-dependent cytotoxic effect (WST-1, percent growth rate)", "setting": "[1]; 100 mM", "value": 65.9, "unit": "%"}, {"measurement": "dose-dependent cytotoxic effect (WST-1, percent growth rate)", "setting": "[1]; 150 mM", "value": 41.5, "unit": "%"}, {"measurement": "dose-dependent cytotoxic effect (WST-1, percent growth rate)", "setting": "[1]; 200 mM", "value": 37.9, "unit": "%"}, {"measurement": "dose-dependent cytotoxic effect (WST-1, percent growth rate)", "setting": "[1]; 250 mM", "value": 39.5, "unit": "%"}, {"measurement": "dose-dependent cytotoxic effect (WST-1, percent growth rate)", "setting": "[1]; 300 mM", "value": 43.7, "unit": "%"}, {"measurement": "cytotoxic effect (WST-1, percent growth rate)", "setting": "[2]; 50 mM", "value": 34.1, "unit": "%"}, {"measurement": "cytotoxic effect (WST-1, percent growth rate)", "setting": "[2]; 100 mM", "value": 26.4, "unit": "%"}, {"measurement": "cytotoxic effect (WST-1, percent growth rate)", "setting": "[2]; 150 mM", "value": 21.1, "unit": "%"}, {"measurement": "cytotoxic effect (WST-1, percent growth rate)", "setting": "[2]; 200 mM", "value": 21.4, "unit": "%"}, {"measurement": "cytotoxic effect (WST-1, percent growth rate)", "setting": "[2]; 250 mM", "value": 24.9, "unit": "%"}, {"measurement": "cytotoxic effect (WST-1, percent growth rate)", "setting": "[2]; 300 mM", "value": 25.6, "unit": "%"}, {"measurement": "dose-dependent cytotoxic effect (WST-1, percent growth rate)", "setting": "[3]; 10 mM", "value": 101.3, "unit": "%"}, {"measurement": "dose-dependent cytotoxic effect (WST-1, percent growth rate)", "setting": "[3]; 50 mM", "value": 59.2, "unit": "%"}, {"measurement": "dose-dependent cytotoxic effect (WST-1, percent growth rate)", "setting": "[3]; 100 mM", "value": 25.4, "unit": "%"}, {"measurement": "dose-dependent cytotoxic effect (WST-1, percent growth rate)", "setting": "[3]; 200 mM", "value": 11.2, "unit": "%"}, {"measurement": "dose-dependent cytotoxic effect (WST-1, percent growth rate)", "setting": "[3]; 300 mM", "value": 9.7, "unit": "%"}, {"measurement": "dose-dependent cytotoxic effect (WST-1, percent growth rate)", "setting": "CREC cells; 10 mM", "value": 81.1, "unit": "%"}, {"measurement": "dose-dependent cytotoxic effect (WST-1, percent growth rate)", "setting": "CREC cells; 50 mM", "value": 36.8, "unit": "%"}, {"measurement": "dose-dependent cytotoxic effect (WST-1, percent growth rate)", "setting": "CREC cells; 100 mM", "value": 23.0, "unit": "%"}, {"measurement": "dose-dependent cytotoxic effect (WST-1, percent growth rate)", "setting": "CREC cells; 200 mM", "value": 9.9, "unit": "%"}, {"measurement": "dose-dependent cytotoxic effect (WST-1, percent growth rate)", "setting": "CREC cells; 300 mM", "value": 10.3, "unit": "%"}]}, {"compound": "COc1cc(/C=C/C(=O)CC(=O)/C=C/c2ccc(O)c(OC)c2)ccc1O", "note": "[curcumin]", "values": [{"measurement": "viability at 30 µM", "setting": "[4]; A2780, read-out: cell viability, 30 μM curcumin, second pair of values, printed again as two-dimensional environment", "value": 95, "unit": "%"}, {"measurement": "viability at 30 µM", "setting": "[4]; A2780, read-out: cell viability, 30 μM curcumin, two-dimensional environment", "value": 42.5, "unit": "%"}, {"measurement": "viability at 50 µM", "setting": "[4]; A2780, read-out: cell viability, 50 μM curcumin, second pair of values, printed again as two-dimensional environment", "value": 82.4, "unit": "%"}, {"measurement": "viability at 50 µM", "setting": "[4]; A2780, read-out: cell viability, 50 μM curcumin, two-dimensional environment", "value": 36.7, "unit": "%"}]}, {"compound": "COc1cccc2c1C(=O)c1c(O)c3c(c(O)c1C2=O)C[C@@](O)(C(=O)CO)C[C@@H]3O[C@H]1C[C@H](N)[C@H](O)[C@H](C)O1", "note": "[doxorubicin]", "values": [{"measurement": "viability at 5 µM", "setting": "EL4 cells; [7]", "value": 71.4, "unit": "%"}, {"measurement": "viability at 5 µM", "setting": "EL4 cells; [8]", "value": 58.6, "unit": "%"}, {"measurement": "viability at 3 µM", "setting": "[5]; NCI-H1703, 24 h, 24 hours, three-dimensional environment (Fc 4%-Sc 50% support)", "value": 94.5, "unit": "%"}, {"measurement": "viability at 3 µM", "setting": "[5]; NCI-H1703, 24 h, 24 hours, two-dimensional environment", "value": 55.1, "unit": "%"}, {"measurement": "viability at 3 µM", "setting": "[5]; NCI-H1703, 48 h, 48 hours, three-dimensional environment (Fc 4%-Sc 50% support)", "value": 95.7, "unit": "%"}, {"measurement": "viability at 3 µM", "setting": "[5]; NCI-H1703, 48 h, 48 hours, two-dimensional environment", "value": 40.8, "unit": "%"}]}, {"compound": "CC(=O)O[C@H]1C(=O)[C@@]2(C)[C@H]([C@H](OC(=O)c3ccccc3)[C@]3(O)C[C@H](OC(=O)[C@H](O)[C@@H](NC(=O)c4ccccc4)c4ccccc4)C(C)=C1C3(C)C)[C@]1(OC(C)=O)CO[C@@H]1C[C@@H]2O", "note": "[paclitaxel]", "values": [{"measurement": "viability at 3 µM", "setting": "[6]; DU-145, 24 h, 24 hours, three-dimensional environment (Fc 4%-Sc 50% support)", "value": 93.5, "unit": "%"}, {"measurement": "viability at 3 µM", "setting": "[6]; DU-145, 24 h, 24 hours, two-dimensional environment", "value": 50.2, "unit": "%"}, {"measurement": "viability at 3 µM", "setting": "[6]; DU-145, 48 h, 48 hours, three-dimensional environment (Fc 4%-Sc 50% support)", "value": 64.2, "unit": "%"}, {"measurement": "viability at 3 µM", "setting": "[6]; DU-145, 48 h, 48 hours, two-dimensional environment", "value": 14.6, "unit": "%"}, {"measurement": "viability at 10 µM", "setting": "[4]; A2780, 10 μM paclitaxel, two-dimensional environment", "value": 12.3, "unit": "%"}, {"measurement": "viability at 20 µM", "setting": "[4]; A2780, 20 μM paclitaxel, two-dimensional environment", "value": 6.4, "unit": "%"}, {"measurement": "viability at 0.5 µM", "setting": "[4]; read-out: cell viability, 0.5 μM paclitaxel, 24 hours, three-dimensional environment (hydrogel support)", "value": 94.2, "unit": "%"}, {"measurement": "viability at 0.5 µM", "setting": "[4]; read-out: viability as compared with the control group, 0.5 μM paclitaxel, 24 hours, two-dimensional environment", "value": 60.9, "unit": "%"}, {"measurement": "viability at 10 µM", "setting": "[4]; A2780, 168 h, 10 μM paclitaxel, three-dimensional environment (cultured 7 days in hydrogel support)", "value": 40.2, "unit": "%"}, {"measurement": "viability at 20 µM", "setting": "[4]; A2780, 168 h, 20 μM paclitaxel, three-dimensional environment (cultured 7 days in hydrogel support)", "value": 51.4, "unit": "%"}]}, {"compound": "Oc1ccc(C=Cc2cc(O)cc(O)c2)cc1", "note": "[resveratrol]", "values": [{"measurement": "viability at 100 µM", "setting": "EL4 cells; [7]", "value": 93.5, "unit": "%"}, {"measurement": "viability at 100 µM", "setting": "EL4 cells; [8]", "value": 50.2, "unit": "%"}]}]}
